Laboratory results as given in publication PMC10916560 (Food Science & Nutrition, 2023).
“Also recorded” adds a separate entry of the source. Read-outs that look alike come from different tables or passages of the source.

What was measured:
[1] = ref El-Hady et al., 2013; cited from earlier work
[2] = test system: AChE; details: read-out: AChE IC50; ref El-Hady et al., 2013; cited from earlier work
[3] = ABTS radical scavenging activity; format: biochemical; details: 0.2 mg/mL; mean ± SD, n = 3
Description: ABTS also forms a relatively stable free‐radical that removes color in its non‐radical form (Shirwaikar et al., [2006]). Spectrophotometric analysis of ABTS˙^+ scavenging activity was determined according to the Re method. In this method, the sample is added to the previously formed ABTS radical solution, and the amount of ABTS˙^+ remaining after a fixed time is spectrophotometrically at 734 nm. […] The absorbance was recorded 30 min after mixing, and the percentage of radical scavenging was calculated for each concentration compared to the blank sample without scavenger (Necip & Durgun, [2022]; Re et al., [1999]).

[4] = target: AChE from electrophorus electricus (Electrophorus electricus, UniProt O42275); experiment: biochemical
Sequence of AChE from electrophorus electricus (O42275 24-633): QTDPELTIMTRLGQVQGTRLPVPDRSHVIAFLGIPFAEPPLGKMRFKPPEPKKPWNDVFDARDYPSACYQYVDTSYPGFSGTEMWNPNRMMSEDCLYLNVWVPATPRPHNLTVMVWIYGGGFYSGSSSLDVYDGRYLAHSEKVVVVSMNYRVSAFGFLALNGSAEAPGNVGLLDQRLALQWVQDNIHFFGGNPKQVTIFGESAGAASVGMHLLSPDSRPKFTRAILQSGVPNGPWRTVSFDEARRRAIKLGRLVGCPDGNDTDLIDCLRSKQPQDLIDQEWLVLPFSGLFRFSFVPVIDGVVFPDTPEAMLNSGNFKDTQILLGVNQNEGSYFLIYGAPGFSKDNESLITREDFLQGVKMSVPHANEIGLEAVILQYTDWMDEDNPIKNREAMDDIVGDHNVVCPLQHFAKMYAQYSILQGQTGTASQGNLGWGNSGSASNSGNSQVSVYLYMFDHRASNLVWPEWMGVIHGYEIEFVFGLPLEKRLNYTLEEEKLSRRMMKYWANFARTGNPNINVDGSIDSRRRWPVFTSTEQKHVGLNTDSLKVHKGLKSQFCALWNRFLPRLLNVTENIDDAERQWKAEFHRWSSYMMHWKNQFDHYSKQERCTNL
Description: Briefly, 50 μL of 5,5′‐dithio‐bis(2‐nitro‐benzoic) acid compound (DTNB) and 100 μL of Tris–HCl solution (1 M, pH 8.0) and 50 μL AChE from electrophorus electricus (5.32 × 10^−3 U) solution was incubated and stirred at 30°C for 15 min. Finally, the reaction was started by adding 50 μL of acetylthiocholine iodide (AChI), which was used as a substrate. Enzymatic hydrolysis of the substrate was recorded spectrophotometrically at a wavelength of 412 nm (Işık et al., [2020]; Wright & Plummer, [1973]). […] Percent inhibition values and IC50 values were determined using a graph (Kilic et al., [2020]).

[5] = CUPRAC cupric ions reducing assay; format: biochemical; details: 0.2 mg/mL, Figure 5
Description: (§1) The ferric cyanide (Fe^3+) reducing antioxidant power (FRAP) assay was performed using the modified method of the previously described Oyaizu method (Oyaizu, [1986]). The complex is formed when the method is reduced to the ferrous (Fe^2+) ion to ferric tripyridyl triazene (Fe^3+‐TPTZ) complex at 700 nm. It is based on the spectrophotometric measurement of the complex. The reduction capacity for cupric ions (Cu^2+) was determined by cupric ions reducing assay (CUPRAC) as previously described. A volume of 0.25 mL neocuproine (7.5 mM) in ethanol, 0.25 mL NH4Ac (1 M), and 0.25 mL CuCl2 (0.01 M) were mixed with isolated compounds, PWE, and different amounts of standards (10, 20, and 40 μg/mL).

[6] = DPPH radical scavenging activity; format: biochemical; details: for DPPH radical scavenging activity: mean ± SD, n = 3; for free-radical scavenging activity (DPPH and ABTS): 0.2 mg/mL (200 μg/mL)
Description: The DPPH scavenging activities of PWE and isolated compounds were determined according to the method described by Blois ([1958]). In the method, the stable DPPH radical is removed by the free‐radical scavenging activity of the sample. […] Then, the prepared DPPH solution (1 mL, […]) was added, followed by incubation for 30 min in the dark. After incubation, the DPPH elimination activity of the sample was measured spectrophotometrically (Necip et al., [2021]).

[7] = FRAP metal reduction assay; format: biochemical; details: for metal reduction capacity, FRAP (in words): 0.2 mg/mL, Figure 5; for metal-reducing capacity (in words): FRAP and CUPRAC, statement in discussion
Description: as §1

Structure (SMILES)	ABTS radical scavenging activity [3] [%]	IC50 [4] [µM]	DPPH radical scavenging activity ([6]; 0.2 mg/mL)	other results
CC(C)=CCC[C@@H](C)[C@H]1CC[C@@]2(C)[C@@H]3CC[C@H]4C(C)(C)[C@@H](O)CC[C@@]45C[C@@]35CC[C@]12C [3β‐cycloartenol]	–	–	–	free-radical scavenging activity [1]: 59%; IC50 [2]: 3.6 ± 0.1 µM
O=c1cc(-c2ccc(O)cc2)oc2cc(O)cc(O)c12 [Apigenin, apigenin]	59.41 ± 1.5	710 ± 30	79.02 ± 2.2%	metal reduction capacity, CUPRAC (in words) [5]: metal reduction capacity close to the standards; free-radical scavenging activity (DPPH and ABTS) ([6]; DPPH and ABTS): over 60%; metal reduction capacity, FRAP (in words) [7]: moderate metal reduction capacity; metal-reducing capacity (in words) [7]: high metal‐reducing capacity
COc1ccc(O)c(C(C)(C)C)c1 [BHA, reference compound]	93.62 ± 3.6	–	80.20 ± 2.9%	–
Cc1cc(C(C)(C)C)c(O)c(C(C)(C)C)c1 [BHT, reference compound]	58.06 ± 2.4	–	51.57 ± 1.5%	–
O=c1cc(-c2ccccc2)oc2cc(O)cc(O)c12 [Chrysin, chrysin]	4.35 ± 0.7	640 ± 20	Inactive	–
COc1cc2ccc(=O)oc2c(O)c1O [Fraxetin, fraxetin]	87.44 ± 3.8	730 ± 40	81.11 ± 1.7%	metal reduction capacity, CUPRAC (in words) [5]: metal reduction capacity close to the standards; radical scavenging activity (in words) ([6]; DPPH and ABTS, 0.2 mg/mL): highest radical scavenging activities; free-radical scavenging activity (DPPH and ABTS) ([6]; DPPH and ABTS): over 60%; metal reduction capacity, FRAP (in words) [7]: moderate metal reduction capacity; metal-reducing capacity (in words) [7]: high metal‐reducing capacity
O=c1c(O)c(-c2ccccc2)oc2cc(O)cc(O)c12 [Galangin, galangin]	62.01 ± 1.9	790 ± 20	44.73 ± 1.8%	metal reduction capacity, CUPRAC (in words) ([5]; listed as 15): high metal reduction activity; also recorded: metal reduction capacity close to the standards; free-radical scavenging activity (DPPH and ABTS) ([6]; DPPH and ABTS): over 60%; metal reduction capacity, FRAP (in words) [7]: high metal reduction activity; metal-reducing capacity (in words) [7]: high metal‐reducing capacity
COc1cc(O)c2c(=O)cc(-c3ccc(O)cc3)oc2c1 [Genkwanin, genkwanin]	8.95 ± 0.8	1150 ± 30	Inactive	–
O=C1c2c(O)cc(O)cc2O[C@H](c2ccccc2)[C@H]1O [Pinobanksin, pinobanksin]	15.63 ± 0.9	450 ± 10	3.55 ± 0.6%	–
O=C1C[C@@H](c2ccccc2)Oc2cc(O)cc(O)c21 [Pinocembrin, pinocembrin]	26.32 ± 1.3	–	Inactive	IC50 ([4]; isolated compounds, read-out: AChE (IC50)): 1100 ± 40 µM
Cc1c(C)c2c(c(C)c1O)CCC(C)(C(=O)O)O2 (stereo not drawn) [Trolox, trolox, reference compound]	89.99 ± 3.2	–	90.37 ± 3.8%	–
